What was measured:
[1] = Initial rate of dissolution of pressed discs in 0.1 N hydrochloric acid; type: physicochemical; details: pressed disc 200 mg substance + 100 mg polyvinylchloride, 100 ml 0.1 N hydrochloric acid, 25°C, linear part between first and fifth minutes
Protocol: In Table 4 which follows, there are compared the rates of dissolution of the. three crystalline forms. Investigations were carried out with pressed discs made up of 200 mg of the test substance and 100 mg of polyvinylchloride pressed at a pressure of 10 tonnes for 5 minutes in a plane around the disc using a pill making matrix with a diameter of 13 mm. The discs thus obtained are immersed by means of a special holding device in 100 ml of 0.1 N hydrochloric acid solution. Stirring was carried out by means of an electromagnetic agitator. The testing temperature employed was 25°C. The initial rates of dissolution are determined from the dissolution curves for the pressed discs, using the linear part between the first and fifth minutes. Comparison of data for the initial rate of dissolution of the three crystalline forms indicate that crystal form "A" has an initial rate of dissolution which is 3 to 4 times greater than that of the other forms.

[2] = Solubility profile / rate of dissolution of pulverous specimens in water; type: physicochemical; details: 25°C
Protocol: The respective solubilities of the three crystalline modifications have also been studied. The rate of dissolution of pulverous specimens in water was determined in the following manner: a finely ground powder formed from the crystalline form under study in a quantity twice as great as necessary to produce a saturated solution in water is placed in a receptacle containing 100 ml of distilled water. The suspension is stirred using a magnetic agitator (600 r.p.m.) at a temperature of 25°C. At predetermined time intervals, samples are taken and, after filtering through a Milipor filter ([…]) they are diluted to the necessary volume for performing a quantitative determination. For this purpose, an absorption maximum at 250 nm is used.

[3] = Stability in aqueous solution (injectible compositions) of different crystalline forms; type: physicochemical; details: dihydrochloride; for Content of active substance in the solution in %, In storing 1 year: stored 1 year; for Content of active substance in the solution in %, In storing 3 years: stored 3 years
Excerpt: Table 3 indicates comparative data concerning the stability of injectible forms of pharmaceutical compositions containing either crystalline form "A" according to the present invention and form "B" (aligerone prepared according to the method described in the aforementioned references to Zikolova and Ninov).

[4] = Hygroscopicity study of ground samples in a humidity chamber; type: physicochemical; details: 90% humidity, 25°C, period of 30 days
Protocol: Hygroscopicity studies have been carried out by placing samples of the three crystalline forms with the same particle size resulting from grinding of samples of the three crystalline forms in a vibratory mill. The studies take place in a chamber with 90% humidity and at a temperature of 25°C. At intervals, samples are taken in order to determine their water content and their crystalline structure by means of the methods described hereinabove. […] They are not hygroscopic and are physically stable under the test conditions..

[5] = Stability study of the solid forms under ambient storage conditions in light-permeable glass jars; type: physicochemical; details: ambient storage in glass jars permitting passage of light; over one year and after three years
Excerpt: More exhaustive stability studies have been performed under ambient storage conditions in glass jars which permit the passage of light therethrough. […] The three crystalline forms are chemically and physically stable under normal storage conditions.

[6] = test system: blood vessels of the brain; details: from Zikolova and Ninov and Drugs of the Future 1980, 5(1); cited from earlier work
[7] = powder in 100 ml distilled water, 600 r.p.m.

C=CCN1CCN(C(c2ccccc2)c2ccccc2)CC1.Cl.Cl.O.O [Crystalline hydrate, 1-benzhydryl-4-allylpiperazine dihydrochloride dihydrate, reference compound]
Initial rate of dissolving [1]: 0.333 mg/mL/min
time until solubility reaches a constant value [2, 7]: 60 min

C=CCN1CCN(C(c2ccccc2)c2ccccc2)CC1.Cl.Cl [Form "A", 1-benzhydryl-4-allyl-piperazine dihydrochloride]
Content of active substance in the solution in %, Initial concentration ([3]; listed as A): 1.251%
Content of active substance in the solution in %, In storing 1 year ([3]; listed as A): 1.250%
Content of active substance in the solution in %, In storing 3 years ([3]; listed as A): 1.198%
hygroscopicity (water absorption) [4]: non-hygroscopic
time to attain maximum solubility [2, 7]: ≤ 2 min
time until solubility reaches a constant value ([2]; powder in 100 ml distilled water, 600 r.p.m., listed as form "A", dihydrochloride): 10 min
solubility in comparison with the other crystalline forms ([2]; water, compared with anhydrous form "B" and the crystalline hydrate): higher equilibrium solubility
chemical and physical stability on storage [5]: stable on storage under normal conditions

C=CCN1CCN(C(c2ccccc2)c2ccccc2)CC1.Cl.Cl [Form "B", 1-benzhydryl-4-allylpiperazine dihydrochloride]
Content of active substance in the solution in %, Initial concentration ([3]; listed as B): 1.255%
Content of active substance in the solution in %, In storing 1 year ([3]; listed as B): 1.105%
Content of active substance in the solution in %, In storing 3 years ([3]; listed as B): 0.925%
Initial rate of dissolving ([1]; listed as B, dihydrochloride): 0.467 mg/mL/min
time until solubility reaches a constant value ([2]; powder in 100 ml distilled water, 600 r.p.m., listed as form "B", dihydrochloride): 60 min

C=CCN1CCN(C(c2ccccc2)c2ccccc2)CC1.Cl.Cl [aligerone, 1-benzhydryl-4-allyl-piperazine dihydrochloride]
effect on blood circulation and oxygen concentration of the brain compared with cinnarizine [6]: stronger than that of cinnarizine
